Test results from PMC3975886, “Structural characteristics of an insect group I chitinase, an enzyme indispensable to moulting” (Acta Crystallographica Section D: Biological Crystallography, 2014).

Molecular target: OfChtI-CAD (Ostrinia furnacalis, UniProt Q2V6H4, E148Q)
Assay: isothermal titration calorimetry, single-site model
Type: binding
Details: 50 mM HEPES pH 8.0, 303 K
Source text: isothermal titration calorimetry, single-site model on OfChtI-CAD

Chain of OfChtI-CAD (Q2V6H4 19-407, stated change not applied): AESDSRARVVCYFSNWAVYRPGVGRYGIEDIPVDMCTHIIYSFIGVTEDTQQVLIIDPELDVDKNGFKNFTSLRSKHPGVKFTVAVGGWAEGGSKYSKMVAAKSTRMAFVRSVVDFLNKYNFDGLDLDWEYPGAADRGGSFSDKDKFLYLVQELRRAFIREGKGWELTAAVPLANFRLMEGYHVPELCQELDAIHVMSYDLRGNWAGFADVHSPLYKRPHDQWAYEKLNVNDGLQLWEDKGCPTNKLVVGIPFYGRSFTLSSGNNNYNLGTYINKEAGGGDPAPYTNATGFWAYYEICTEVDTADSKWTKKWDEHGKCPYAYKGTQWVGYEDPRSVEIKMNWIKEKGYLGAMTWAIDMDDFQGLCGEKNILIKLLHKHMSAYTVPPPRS

`CC(=O)N[C@H]1[C@H](O[C@H]2[C@H](O)[C@@H](NC(C)=O)C(O)O[C@@H]2CO)O[C@H](CO)[C@@H](O[C@@H]2O[C@H](CO)[C@@H](O[C@@H]3O[C@H](CO)[C@@H](O)[C@H](O)[C@H]3NC(C)=O)[C@H](O)[C@H]2NC(C)=O)[C@@H]1O` (stereo partly drawn) [(GlcNAc)4] was tested, and the Kd was 11.3 ± 1.5 µM.

`CC(=O)N[C@H]1[C@H](O[C@H]2[C@H](O)[C@@H](NC(C)=O)[C@H](O[C@H]3[C@H](O)[C@@H](NC(C)=O)C(O)O[C@@H]3CO)O[C@@H]2CO)O[C@H](CO)[C@@H](O[C@@H]2O[C@H](CO)[C@@H](O[C@@H]3O[C@H](CO)[C@@H](O)[C@H](O)[C@H]3NC(C)=O)[C@H](O)[C@H]2NC(C)=O)[C@@H]1O` (stereo partly drawn) [(GlcNAc)5] was tested, and the Kd was 2 ± 0.2 µM.

Molecule `CC(=O)N[C@H]1[C@H](O[C@H]2[C@H](O)[C@@H](NC(C)=O)[C@H](O[C@H]3[C@H](O)[C@@H](NC(C)=O)C(O)O[C@@H]3CO)O[C@@H]2CO)O[C@H](CO)[C@@H](O[C@@H]2O[C@H](CO)[C@@H](O[C@@H]3O[C@H](CO)[C@@H](O[C@@H]4O[C@H](CO)[C@@H](O)[C@H](O)[C@H]4NC(C)=O)[C@H](O)[C@H]3NC(C)=O)[C@H](O)[C@H]2NC(C)=O)[C@@H]1O` (stereo partly drawn) [(GlcNAc)6, N′,N′′,N′′′,N′′′′,N′′′′′, N′′′′′′-hexaacetylchitohexaose] has a Kd of 0.48 ± 0.09 µM.
